According to patent US5932217A, “Peptides which inhibit adhesion between leukocytes and endothelial cells” (priority 1994, dated 1999):
Where no end group is shown, it is not given here.

How the values were obtained:
THP-1 cells = assay: Generation of Factor Xa by monocytes; type: cell-based; settings: peptides 0.5 mM
Experimental: Factor Xa generation was determined by a modification of the method of Miletich et al. (1978), J. Biol. Chem. 253: 6908-6916. THP-1 cells (ATCC; 3×10^7 /ml) resuspended in RPMI 1640 (Bio Whittaker, Walkersville, Md.) were incubated with 100 μM ADP (Sigma), 2.5 mM CaCl2, 1 or 5 μg/ml Factor X (Hematologic Technologies Inc.) and 0.5 mM peptides at room temperature. After 20 minutes, 100 μl of the reaction mixture was transferred to 37° C. and supplemented with 100 μl of bovine factor VII- and Factor X-deficient plasma (Sigma). Coagulation was initiated by adding 100 μl of 25 mM CaCl2 and the clotting time was determined. Factor Xa procoagulant activity (ng/ml) was calculated by means of a standard curve constructed by serial concentrations of Factor Xa (Hematologic Technologies Inc.) from 50 to 250 ng/ml.

CD11b/CD18 = molecular target: T1, CD11b/CD18 (Homo sapiens, UniProt P05107+P11215); assay: Downmodulation of CD11b/CD18 on macrophages; type: cell-based; settings: wells coated with peptides 0.5 mM or mAb IB4 50 μg/ml
T1 construct: endogenous in cells; host or cells: human monocyte-derived macrophages from buffy coats
Experimental: Human monocytes were purified from buffy coats on Percoll gradients and cultured in 12.5% human serum in Teflon beakers. Macrophages were harvested from Teflon beakers after 6-8 days and suspended in HAP buffer. Terasaki wells were coated with 5 μl of peptides (0.5 mM) or anti-CD18 mAb IB4 (50 μg/ml). Control wells were coated with HAP. After 2 hours of incubation at RT, 5 μl of macrophages (5×10^5 /ml HAP) were added and allowed to spread for 45 mins. at 37° C. […] IgM-coated erythrocytes in buffer served as negative control. After washing, the number of erythrocytes bound per 100 leukocytes (adherence index) was quantitated visually under an inverted microscope.

[1] = system: rats inoculated intracisternally with Haemophilus influenzae type b lipooligosaccharide; assay: Rat meningitis model (H. influenzae LOS); type: in vivo
Experimental: The experiments were performed according to established protocols (Wispelway et al., 1988, J. Clin. Invest., 82: 1339-1346). Purified Haemophilus influenzae type b strain DL42 lipooligosaccharide (LOS) was prepared for inoculation by sonication for 30 minutes, dilution to the desired concentration (20 ng/50 μl) in normal saline or PBS, and sonication for an additional 15 to 30 minutes just prior to use.
Briefly, anesthetized female Wistar rats were placed under a micromanipulator and inoculated intracisternally with a 25 gauge needle. After removal of 50 μl of CSF (without visible blood contamination), rats were inoculated intracisternally with 50 μl (20 ng) of LOS using a 1 ml syringe with a 25 gauge needle. Ten to fifteen minutes after inoculation with LOS, the rats were treated by intravenous administration of the test substance: a solution of an FHA peptide in PBS, a solution of a control peptide in PBS, or an equal volume of PBS alone.
Three hours after LOS inoculation, 5 μCi of ^125 I-radiolabelled albumin in 50 μl normal saline was administered intravenously. One hour later, CSF was collected via intracisternal puncture and blood samples were collected via intracardiac puncture. CSF leukocytosis was determined by manually counting white blood cells using a hemacytometer, and blood-brain barrier permeability was determined as the percent of radioactivity in whole blood that was present in the CSF. Blood samples were obtained immediately prior to inoculation, immediately prior to treatment, and at 4 hours post-inoculation for determination of peripheral white blood cell concentrations.

Human neutrophils = assay: Binding of 125I-Factor X to neutrophils; settings: read-out: IC50 of inhibition of 125I-Factor X binding
Experimental: Human Factor X (Sigma or Hematologic Technologies Inc.) was labeled with ^125 I using Iodogen (Pierce Chemical Co.) Human neutrophils were isolated from heparinized blood according to the manufacturer's specification using Neutrophil Isolation Medium (Cardinal Associates, Santa Fe, N.M.) and washed three times with 5 mM EDTA-phosphate-buffered saline (PBS), pH 7.2, at 4° C. To eliminate platelet contamination,neutrophils were incubated with autologous serum containing 5 mM EDTA for 30 mins. at 37° C., washed three times with ice-cold PBS, pH 7.2, and resuspended in RPMI 1640 tissue culture medium (Whittaker M. A. Bioproducts, Walkersville, Md.) at 4° C. Binding of ^125 I-Factor X to neutrophils was measured based on a method described by Altieri et al. (1991) Science 254: 1200-1202. Briefly, 200 μl of neutrophils (1.5×10^7 /ml) were supplemented with 17.5 μl of 50 mM CaCl2, stimulated with 3.5 μl of 100 μM NH2 -formyl-Met-Leu-Phe (Sigma), and mixed with 30 μl of 10.3 μg/ml ^125 I-Factor X and 100 μl of 1.75 mM of peptide. Buffer alone and a peptide of scrambled sequence served as controls in each of the 3 experiments. After incubation for 20 mins. at room temperature, neutrophil-bound ^125 I-Factor X was separated from unbound ^125 I-Factor X by centrifugation of 300 μl aliquots through 50 μl of a mixture of Hi phenyl silicone oil DC 550 and methyl silicone oil DC 200 5:1 (Nye Inc. Specialty Lubricants, New Bedford, Mass.) at 12,000×g for 2 mins. Aliquots of the supernatant (cell free ^125 I-Factor X) and the cell pellet (cell bound ^125 I-Factor X) were counted in a gamma-counter. Nonspecific binding (~50,000 cpm) was determined by adding a 100 fold excess of unlabeled Factor X, and subtracted from total radioactivity (~500,000 cpm for controls).

[2] = 50% rabbit plasma at 37° C.
Experimental: To determine the stability of the FHA II peptide, the unmodified or the acetylated-amidated peptide were incubated in 50% rabbit plasma at 37° C.

T1 sequence (P05107 23-769, other chains not shown): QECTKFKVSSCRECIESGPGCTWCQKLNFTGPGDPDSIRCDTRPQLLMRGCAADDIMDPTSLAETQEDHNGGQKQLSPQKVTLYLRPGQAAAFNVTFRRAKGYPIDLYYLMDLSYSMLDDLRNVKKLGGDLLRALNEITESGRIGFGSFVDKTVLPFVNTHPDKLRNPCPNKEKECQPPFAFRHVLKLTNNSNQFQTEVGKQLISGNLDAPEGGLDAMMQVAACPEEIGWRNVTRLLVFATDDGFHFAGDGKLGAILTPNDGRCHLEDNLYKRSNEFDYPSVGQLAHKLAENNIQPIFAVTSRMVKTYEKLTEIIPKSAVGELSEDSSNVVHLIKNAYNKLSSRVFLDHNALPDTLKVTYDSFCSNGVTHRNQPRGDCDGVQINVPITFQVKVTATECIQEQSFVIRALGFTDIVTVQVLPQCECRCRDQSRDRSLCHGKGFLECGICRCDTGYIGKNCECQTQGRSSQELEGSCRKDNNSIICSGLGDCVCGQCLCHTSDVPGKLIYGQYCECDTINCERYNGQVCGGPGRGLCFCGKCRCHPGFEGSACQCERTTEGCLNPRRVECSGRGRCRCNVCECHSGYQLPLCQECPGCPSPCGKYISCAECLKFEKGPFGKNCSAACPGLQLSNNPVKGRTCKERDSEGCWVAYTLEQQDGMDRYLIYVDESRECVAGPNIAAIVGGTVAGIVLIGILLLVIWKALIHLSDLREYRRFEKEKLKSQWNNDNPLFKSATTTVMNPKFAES

## CC(=O)N[C@@H](CC(C)C)C(=O)N[C@@H](CC(C)C)C(=O)N[C@H](C=O)CCCNC(=N)N [Leupeptin, reference compound]
THP-1 cells
  Clotting time: 63.0 ± 4.0 s
THP-1 cells; from standard curve
  Factor Xa: < 10.0 ng/mL

## AADPHQGVLAQGDIIMDAKG [FHA Cc]
CD11b/CD18
  reduction of binding of C3bi-coated erythrocytes to macrophages: no significant effect

## Ac-VEEDTKG-NH2 [scrambled ac/am FHA II, VEEDTKG, reference compound]
[1]; Experiment #3, 600 nmol
  BBB permeability: 7.74 ± 3.59%
[1]; Experiment #3, 600 nmol i.v., CSF 4 hours after LOS
  Leukocytosis: 14,287 ± 10,199 cells/ml

## ETKEVDG [FHA II, ETKEVDG]
Human neutrophils
  IC50: 10 µM
[2]
  time in which concentration decreased by half: 4 to 6 h

## GTLLLRNDALTENGTVTISA [FHA Cd]
CD11b/CD18
  reduction of binding of C3bi-coated erythrocytes to macrophages: no significant effect

## GYDTKQEDG [Factor X II, reference compound]
Human neutrophils
  IC50: 500 µM

## RADPHQGVLAQGDIIMDAKG [FHA Cb]
CD11b/CD18
  reduction of binding of C3bi-coated erythrocytes to macrophages: no significant effect

## RGDPHQGVLAQGDIIMDAKG [FHA Ca]
CD11b/CD18
  reduction of binding of C3bi-coated erythrocytes to macrophages: 61±7%
[1]; peripheral white blood cells
  neutropenia: No neutropenia was observed
